Measurements: PubChem BioAssay (NCI)
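Where inhibition never reached the appropriate level, the endpoint shown equals the highest concentration tested. Otherwise, values were interpolated linearly from a five-concentration, 48-hour dose response in 96-well plates. Here, GI50 denotes the concentration required for 50% inhibition of growth. Definition used: TGI = concentration required for complete inhibition of growth.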

Key:
Assay in all cases: DTP human tumour cell line panel, 48 h
786-0 renal = system: 786-0 renal
A498 renal = system: A498 renal
A549 NSCLC = system: A549 NSCLC
ACHN renal = system: ACHN renal
BT-549 breast = system: BT-549 breast
CAKI-1 renal = system: CAKI-1 renal
CCRF-CEM leukemia = system: CCRF-CEM leukemia
COLO 205 colon = system: COLO 205 colon
DU-145 prostate = system: DU-145 prostate
EKVX NSCLC = system: EKVX NSCLC
HCC-2998 colon = system: HCC-2998 colon
HCT-116 colon = system: HCT-116 colon
HCT-15 colon = system: HCT-15 colon
HL-60(TB) leukemia = system: HL-60(TB) leukemia
HOP-62 NSCLC = system: HOP-62 NSCLC
HOP-92 NSCLC = system: HOP-92 NSCLC
HS 578T breast = system: HS 578T breast
HT29 colon = system: HT29 colon
IGROV1 ovarian = system: IGROV1 ovarian
K-562 leukemia = system: K-562 leukemia
KM12 colon = system: KM12 colon
LOX IMVI melanoma = system: LOX IMVI melanoma
M14 melanoma = system: M14 melanoma
MALME-3M melanoma = system: MALME-3M melanoma
MCF7 breast = system: MCF7 breast
MDA-MB-435 = system: MDA-MB-435
MDA-MB-468 breast = system: MDA-MB-468 breast
MOLT-4 leukemia = system: MOLT-4 leukemia
NCI-H226 lung = system: NCI-H226 lung
NCI-H23 lung = system: NCI-H23 lung
NCI-H460 lung = system: NCI-H460 lung
NCI-H522 lung = system: NCI-H522 lung
NCI/ADR-RES ovarian = system: NCI/ADR-RES ovarian
OVCAR-3 ovarian = system: OVCAR-3 ovarian
OVCAR-4 ovarian = system: OVCAR-4 ovarian
OVCAR-5 ovarian = system: OVCAR-5 ovarian
OVCAR-8 ovarian = system: OVCAR-8 ovarian
PC-3 prostate = system: PC-3 prostate
RPMI-8226 leukemia = system: RPMI-8226 leukemia
RXF 393 renal = system: RXF 393 renal
SF-268 CNS = system: SF-268 CNS
SF-295 CNS = system: SF-295 CNS
SF-539 CNS = system: SF-539 CNS
SK-MEL-2 melanoma = system: SK-MEL-2 melanoma
SK-MEL-28 melanoma = system: SK-MEL-28 melanoma
SK-MEL-5 melanoma = system: SK-MEL-5 melanoma
SK-OV-3 ovarian = system: SK-OV-3 ovarian
SN12C renal = system: SN12C renal
SNB-19 CNS = system: SNB-19 CNS
SNB-75 CNS = system: SNB-75 CNS
SW-620 colon = system: SW-620 colon
T-47D breast = system: T-47D breast
TK-10 renal = system: TK-10 renal
U251 CNS = system: U251 CNS
UACC-257 melanoma = system: UACC-257 melanoma
UACC-62 melanoma = system: UACC-62 melanoma

For `CCCCCCCCCCCCCCCCCCCC(=O)NCCc1c[nH]c2ccc(OC(=O)CCCC(=O)OCCOOCCOOCCOOCCOOCCOOCCOOCCOOCCOOCCOOCCOOCCOOCCOC)cc12`, the GI50 (786-0 renal) was greater than 100 µM, the TGI (786-0 renal) was greater than 100 µM and the GI50 (A498 renal) was greater than 100 µM. For the same molecule, the TGI (A498 renal) was greater than 100 µM, the GI50 (A549 NSCLC) was 21.7 µM and the TGI (A549 NSCLC) was 62.3 µM. It also gave a GI50 (ACHN renal) of 25.2 µM, a TGI (ACHN renal) greater than 100 µM and a GI50 (BT-549 breast) of 4.15 µM. For the same molecule, the TGI (BT-549 breast) was 14 µM, the GI50 (CAKI-1 renal) was 34 µM and the TGI (CAKI-1 renal) was greater than 100 µM. For the same molecule, the GI50 (CCRF-CEM leukemia) was 0.769 µM, the TGI (CCRF-CEM leukemia) was 8.4 µM and the GI50 (COLO 205 colon) was greater than 100 µM. For the same molecule, the TGI (COLO 205 colon) was greater than 100 µM, the GI50 (DU-145 prostate) was 24.8 µM and the TGI (DU-145 prostate) was greater than 100 µM. The GI50 (EKVX NSCLC) was 26.9 µM, the TGI (EKVX NSCLC) was greater than 100 µM and the GI50 (HCC-2998 colon) was 44.7 µM. It also gave a TGI (HCC-2998 colon) greater than 100 µM, a GI50 (HCT-116 colon) of 30.7 µM and a TGI (HCT-116 colon) greater than 100 µM. For the same molecule, the GI50 (HCT-15 colon) was 31 µM, the TGI (HCT-15 colon) was greater than 100 µM and the GI50 (HL-60(TB) leukemia) was 2.53 µM. It also gave a TGI (HL-60(TB) leukemia) of 10.3 µM, a GI50 (HOP-62 NSCLC) of 26.7 µM and a TGI (HOP-62 NSCLC) greater than 100 µM. The GI50 (HOP-92 NSCLC) was 18.6 µM, the TGI (HOP-92 NSCLC) was 44.8 µM and the GI50 (HS 578T breast) was 38.7 µM. It also gave a TGI (HS 578T breast) greater than 100 µM, a GI50 (HT29 colon) of 32.9 µM and a TGI (HT29 colon) greater than 100 µM. It also gave a GI50 (IGROV1 ovarian) of 16.2 µM, a TGI (IGROV1 ovarian) of 38.9 µM and a GI50 (K-562 leukemia) of 5.59 µM. The TGI (K-562 leukemia) was 26.4 µM, the GI50 (KM12 colon) was 17.5 µM and the TGI (KM12 colon) was 52.6 µM. For the same molecule, the GI50 (LOX IMVI melanoma) was 13.4 µM, the TGI (LOX IMVI melanoma) was 33.1 µM and the GI50 (M14 melanoma) was 29 µM. It also gave a TGI (M14 melanoma) greater than 100 µM, a GI50 (MALME-3M melanoma) of 54.3 µM and a TGI (MALME-3M melanoma) greater than 100 µM. It also gave a GI50 (MCF7 breast) of 24.1 µM, a TGI (MCF7 breast) greater than 100 µM and a GI50 (MDA-MB-435) of 41.2 µM. For the same molecule, the TGI (MDA-MB-435) was greater than 100 µM, the GI50 (MDA-MB-468 breast) was 29.6 µM and the TGI (MDA-MB-468 breast) was greater than 100 µM. The GI50 (MOLT-4 leukemia) was 4.61 µM, the TGI (MOLT-4 leukemia) was 23 µM and the GI50 (NCI-H226 lung) was 14 µM. It also gave a TGI (NCI-H226 lung) of 33.1 µM, a GI50 (NCI-H23 lung) of 18.9 µM and a TGI (NCI-H23 lung) of 42.4 µM. It also gave a GI50 (NCI-H460 lung) of 27.9 µM, a TGI (NCI-H460 lung) greater than 100 µM and a GI50 (NCI-H522 lung) of 2.7 µM. The TGI (NCI-H522 lung) was 9.36 µM, the GI50 (NCI/ADR-RES ovarian) was 21.8 µM and the TGI (NCI/ADR-RES ovarian) was 72 µM. It also gave a GI50 (OVCAR-3 ovarian) of 10.7 µM, a TGI (OVCAR-3 ovarian) of 25.6 µM and a GI50 (OVCAR-4 ovarian) of 20.8 µM. For the same molecule, the TGI (OVCAR-4 ovarian) was 95.1 µM, the GI50 (OVCAR-5 ovarian) was 68 µM and the TGI (OVCAR-5 ovarian) was greater than 100 µM. For the same molecule, the GI50 (OVCAR-8 ovarian) was 16 µM, the TGI (OVCAR-8 ovarian) was 38.5 µM and the GI50 (PC-3 prostate) was 11.6 µM. It also gave a TGI (PC-3 prostate) of 49.5 µM, a GI50 (RPMI-8226 leukemia) of 3.22 µM and a TGI (RPMI-8226 leukemia) of 26.5 µM. It also gave a GI50 (RXF 393 renal) of 18.9 µM, a TGI (RXF 393 renal) of 39.2 µM and a GI50 (SF-268 CNS) of 15.2 µM. It also gave a TGI (SF-268 CNS) of 47.1 µM, a GI50 (SF-295 CNS) of 15.7 µM and a TGI (SF-295 CNS) of 31.6 µM. It also gave a GI50 (SF-539 CNS) of 11 µM, a TGI (SF-539 CNS) of 25.3 µM and a GI50 (SK-MEL-2 melanoma) of 26.1 µM. The TGI (SK-MEL-2 melanoma) was greater than 100 µM, the GI50 (SK-MEL-28 melanoma) was greater than 100 µM and the TGI (SK-MEL-28 melanoma) was greater than 100 µM. For the same molecule, the GI50 (SK-MEL-5 melanoma) was 40.8 µM, the TGI (SK-MEL-5 melanoma) was greater than 100 µM and the GI50 (SK-OV-3 ovarian) was greater than 100 µM. For the same molecule, the TGI (SK-OV-3 ovarian) was greater than 100 µM, the GI50 (SN12C renal) was 12.6 µM and the TGI (SN12C renal) was 33.2 µM. It also gave a GI50 (SNB-19 CNS) of 22.4 µM, a TGI (SNB-19 CNS) of 62.8 µM and a GI50 (SNB-75 CNS) greater than 100 µM. It also gave a TGI (SNB-75 CNS) greater than 100 µM, a GI50 (SW-620 colon) of 35.5 µM and a TGI (SW-620 colon) greater than 100 µM. For the same molecule, the GI50 (T-47D breast) was 14.9 µM, the TGI (T-47D breast) was greater than 100 µM and the GI50 (TK-10 renal) was greater than 100 µM. The TGI (TK-10 renal) was greater than 100 µM, the GI50 (U251 CNS) was 17.1 µM and the TGI (U251 CNS) was 33.9 µM. It also gave a GI50 (UACC-257 melanoma) greater than 100 µM, a TGI (UACC-257 melanoma) greater than 100 µM and a GI50 (UACC-62 melanoma) of 34.8 µM. It also gave a TGI (UACC-62 melanoma) greater than 100 µM.
